Test results published in US20210213006A1, “METHODS OF TREATING NEURODEGENERATIVE DISEASES” (Seal Rock Therapeutics, Inc., priority 2018, published 2021).
pIC50: −log10 of the molar value.

Tests used:
ASK1 = biological target: T1, ASK1 (Homo sapiens, UniProt Q99683); test: ASK1 Kinase Assay (Promega ASK1 Kinase Enzyme System, ADP-Glo); assay type: biochemical; settings: enzyme 50 nM, Myelin basic protein 1 μg/ml, ATP 10 μM
T1 construct: purchased Promega V3881
Description: ASK1 Kinase Assay. The ASK1 enzymatic assay was run following Promega ASK1 Kinase Enzyme System (Cat #V3881). The kit provides the protocol, enzymes and all reagents necessary to run an assay.
Firstly, the compounds, enzyme, substrate and ATP were diluted in provided assay buffer. The final concentration of the enzyme was 50 nM, substrate (Myelin basic protein) 1μg/ml and ATP 10 μM. The compound and the enzyme were pre-incubated in a 384 well white solid bottom plate (Greiner, Cat #784075) for 10 minutes. After incubation, the substrate and ATP were added and incubated for further 60 minutes. After 60 minutes, ADP-gloTM was added and plate was incubated for another 40 minutes. After 40 minutes, Kinase Detection Reagent was added and the plate was incubated for 45 minutes. After 45 minutes, plate was read on Perkin Elmer EnVision using luminescence read (0.5 seconds/well).

[1] = biological target: T2, recombinant human full-length DYRK1A protein (Homo sapiens, UniProt Q13627); test: DYRK1A Kinase Assay (microfluidics detection); assay type: biochemical; settings: enzyme 0.01 nM, ATP 20 μM, DYRKtide peptide 1 μM, 3 h
T2 construct: recombinant human full-length DYRK1A protein; GST; host or cells: insect cells
Description: The DYRK1A kinase assay was performed using recombinant human full-length DYRK1A protein (GST-tagged, expressed in insect cells), in a 12-concentration IC50 format with singlicate wells (12 pt IC50), using microfluidics detection technology. Kinase reactions were assembled in 384 well plates (Greiner) in a total volume of 20 uL as follows: kinase protein was pre-diluted in assay buffer comprising: 100 mM HEPES, pH 7.5, 0.1% BSA, 0.01% Triton X-100, 1mM DTT, 5mM MgCl2 and dispensed into 384 well plate (10 μL per well). All compounds and reference standards were serially pre-diluted in DMSO and added to the protein samples by acoustic dispensing (Labcyte Echo). DMSO concentration was equalized to 1% in all samples. Control samples (0%-inhibition in the absence of inhibitor, DMSO only) and 100%-inhibition (in the absence of enzyme) are assembled in replicates of four and used to calculate the %-inhibition in the presence of compounds. Reactions were initiated by addition of […] of FAM-labeled DYRKtide peptide substrate and ATP prepared in the same assay buffer. Final concentrations of enzyme, ATP and substrate peptide were 0.01 nM, 20 μM and 1 μM, respectively. The kinase reactions are allowed to proceed for 3 h at room temperature. Following incubation, the reactions were quenched by addition of 50 μL of termination buffer (100 mM HEPES, pH7.5, 0.01% Triton X-100, 50 mM EDTA). Terminated plates are analyzed on a microfluidic electrophoresis instrument (Caliper LabChip® 3000, Caliper Life Sciences/Perkin Elmer), enabling electrophoretic separation and detection of product and substrate. A change in the relative intensity of the peptide substrate and phosphorylated product was the parameter measured. Activity in each test sample was determined as the product to sum ratio (PSR): P/(S+P), where P is the peak height of the product, and S is the peak height of the substrate. Percent inhibition (Pinh) was determined using the following equation: Pinh=(PSR0% inh—PSR compound)/(PSR0% inh—PSR100% inh)*100, in which: PSR compound is the product/sum ratio in the presence of compound, PSR0% inh is the product/sum ratio in the absence of compound and the PSR100% inh is the product/sum ratio in the absence of the enzyme. The compound IC50 (50%-inhibition) was determined by the %-inh data (Pinh versus compound concentration) fitted by a 4-parameter sigmoid dose-response model using XLfit software (IDBS).

T1 sequence (Q99683 649-946 limits assumed): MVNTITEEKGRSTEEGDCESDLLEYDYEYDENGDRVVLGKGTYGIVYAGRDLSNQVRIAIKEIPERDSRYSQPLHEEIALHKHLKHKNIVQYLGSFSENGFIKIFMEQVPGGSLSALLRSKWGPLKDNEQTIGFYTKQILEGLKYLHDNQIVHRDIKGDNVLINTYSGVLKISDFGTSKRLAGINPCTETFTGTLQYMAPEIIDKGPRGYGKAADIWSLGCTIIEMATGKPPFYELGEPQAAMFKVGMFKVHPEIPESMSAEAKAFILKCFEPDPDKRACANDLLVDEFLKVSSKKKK

| Compound | pIC50 (ASK1) | pIC50 [1] |
| --- | --- | --- |
| O=C1c2sc3ccccc3c2CN1c1cccc(-c2nncn2C2CC2)n1 [Compound 95, 2-(6-(4-cyclopropyl-4H-1,2,4-triazol-3-yl)pyridin-2-yl)-1,2-dihydro-3H-benzo[4,5]thieno[2,3-c]pyrrol-3-one] | 6.00 to 6.70 | 5.00 to 6.00 |
| O=C1c2scc(Br)c2CN1c1cccc(-c2nncn2C2CC2)n1 [Compound 100, 3-bromo-5-(6-(4-cyclopropyl-4H-1,2,4-triazol-3-yl)pyridin-2-yl)-4,5-dihydro-6H-thieno[2,3-c]pyrrol-6-one] | 6.00 to 6.70 | 5.00 to 6.00 |
| Cc1csc2c1CN(c1cccc(-c3nncn3C3CC3)n1)C2=O [Compound 99, 5-(6-(4-cyclopropyl-4H-1,2,4-triazol-3-yl)pyridin-2-yl)-3-methyl-4,5-dihydro-6H-thieno[2,3-c]pyrrol-6-one] | 6.00 to 6.70 | 5.00 to 6.00 |
| CN(C)c1cc2c(s1)C(=O)N(c1cccc(-c3nncn3C3CC3)n1)C2 [Compound 104, 5-(6-(4-cyclopropyl-4H-1,2,4-triazol-3-yl)pyridin-2-yl)-2-(dimethylamino)-4,5-dihydro-6H-thieno[2,3-c] pyrrol-6-one] | 6.00 to 6.70 | 6.00 to 6.70 |
| COc1cc2c(s1)C(=O)N(c1cccc(-c3nncn3C3CC3)n1)C2 [Compound 102, 5-(6-(4-cyclopropyl-4H-1,2,4-triazol-3-yl)pyridin-2-yl)-2-methoxy-4,5-dihydro-6H-thieno[2,3-c]pyrrol-6-one] | > 6.70 | 6.00 to 6.70 |
| O=C1c2scc(C3CCOCC3)c2CN1c1cccc(-c2nncn2C2CC2)n1 [Compound 98, 5-(6-(4-cyclopropyl-4H-1,2,4-triazol-3-yl)pyridin-2-yl)-3-(tetrahydro-2H-pyran-4-yl)-4,5-dihydro-6H-thieno[2,3-c]pyrrol-6-one] | 5.00 to 6.00 | 5.00 to 6.00 |
| Cc1cc2c(s1)C(=O)N(c1cccc(-c3nncn3C3CC3)n1)C2 [Compound 96, 5-(6-(4-cyclopropyl-4H-1,2,4-triazol-3-yl)pyridin-2-yl)-2-methyl-4,5-dihydro-6H-thieno[2,3-c]pyrrol-6-one] | > 6.70 | 6.00 to 6.70 |
| O=C1c2sccc2CN1c1cccc(-c2nncn2C2CC2)n1 [Compound 90, 5-(6-(4-Cyclopropyl-4H-1,2,4-triazol-3-yl)pyridin-2-yl)-4,5-dihydro-6H-thieno[2,3-c]pyrrol-6-one] | > 6.70 | 6.00 to 6.70 |
| O=C1c2scc(-c3ccccc3)c2CN1c1cccc(-c2nncn2C2CC2)n1 [Compound 94, 5-(6-(4-cyclopropyl-4H-1,2,4-triazol-3-yl)pyridin-2-yl)-3-phenyl-4,5-dihydro-6H-thieno[2,3-c]pyrrol-6-one] | 6.00 to 6.70 | 5.00 to 6.00 |
| CC(C)CNc1csc2c1CN(c1cccc(-c3nncn3C3CC3)n1)C2=O [Compound 101, 5-(6-(4-cyclopropyl-4H-1,2,4-triazol-3-yl)pyridin-2-yl)-3-(isobutylamino)-4,5-dihydro-6H-thieno[2,3-c] pyrrol-6-one] |  | 5.00 to 6.00 |

The next lines start with the values.

| pIC50 (ASK1) | pIC50 [1] | Compound |
| --- | --- | --- |
| 6.00 to 6.70 | > 6.70 | O=C1c2sc(C3CCOCC3)cc2CN1c1cccc(-c2nncn2C2CC2)n1 [Compound 93, 5-(6-(4-cyclopropyl-4H-1,2,4-triazol-3-yl)pyridin-2-yl)-2-(tetrahydro-2H-pyran-4-yl)-4,5-dihydro-6H-thieno[2,3-c]pyrrol-6-one] |
| 6.00 to 6.70 | 6.00 to 6.70 | CC(=O)c1ccccc1-c1cc2c(s1)C(=O)N(c1cccc(-c3nncn3C3CC3)n1)C2 [Compound 91, 2-(2-Acetylphenyl)-5-(6-(4-cyclopropyl-4H-1,2,4-triazol-3-yl)pyridin-2-yl)-4,5-dihydro-6H-thieno[2,3-c]pyrrol-6-one] |
| 6.00 to 6.70 | > 6.70 | N-(3-(5-(6-(4-Cyclopropyl-4H-1,2,4-triazol-3-yl)pyridin-2-yl)-6-oxo-5,6-dihydro-4H-thieno[2,3-c]pyrrol-2-yl)phenypacetamide [Compound 92] |
| > 6.70 | > 6.70 | CC(C)n1cnnc1-c1cccc(N2Cc3ccsc3C2=O)n1 [Compound 103, 5-(6-(4-isopropyl-4H-1,2,4-triazol-3-yl)pyridin-2-yl)-4,5-dihydro-6H-thieno[2,3-c]pyrrol-6-one] |
| 6.00 to 6.70 | > 6.70 | CCc1cc2c(s1)C(=O)N(c1cccc(-c3nncn3C3CC3)n1)C2 [Compound 97, 5-(6-(4-cyclopropyl-4H-1,2,4-triazol-3-yl)pyridin-2-yl)-2-ethyl-4,5-dihydro-6H-thieno[2,3-c]pyrrol-6-one] |
